Measurements as given in patent publication US11892435B2, “NMR methods for measuring pH in oral care, home care and personal care products” (Colgate-Palmolive Company, priority 2018, dated 2024).

Assay: 13C NMR pH titration of sodium lactate/lactic acid solutions, nonlinear least squares fit of Equation 5
Type: physicochemical
Settings: carboxyl group of lactic acid, about 1 weight % sodium lactate and lactic acid, pH about 2 to about 5.5, fit of 13C chemical shift vs pH
Experimental: In at least one implementation, the chemical species or molecular or molecular entity may be or include a carboxyl group, such as the carboxyl group of a lactic acid, where the observed C-13 chemical shift can be expressed according to equation (5): pH=pKa+log [(δC−δCO2H)/(δCO2^−−δC)] (5)
A calibration curve was prepared for measuring lactic acid with an NMR by using standardized buffered solutions of sodium lactate and lactic acid at different mole ratios in water at varying pH. The solutions included a total concentration of sodium lactate and lactic acid at about 1 weight %, and the pH was varied from a pH of about 2 to about 5.5. NMR was performed on the samples to obtain C-13 chemical shift values. A pH electrode was utilized to measure the pH of each of the standardized samples, and the calibration curve was prepared by correlating the measured C-13 chemical shift to the pH values measured by the pH electrode, as illustrated in FIG. 4. As such, the observed ^13C chemical shift of the carbonyl group (δC) was expressed as the weighted average of the ^13C chemical shift between CO2H (δCO2H) and CO2^−(δCO2^−). The pH of the carboxyl group was described in terms of pKa of the carboxyl group, as represented by Equation 5. pH=pKa+log [(δC−δCO2H)/(δCO2^−−δC)] (5)
The nonlinear least squares fit was applied to determine the values of the pKa, the δCO2^−, and the δCO2H.

pKa: 3.73
Compound: CC(O)C(=O)O (stereo not shown) [lactic acid]
